What was measured:
[1] = system: inflammatory cells in spinal cord of EAE mice; test: Immunohistochemistry of cell infiltrates (CD45, CD68, CD3) in spinal cord of EAE mice; assay type: in vivo, mouse; design: key to CD45 (average) / CD68 (average): -: no positive cells; +: few positive cells; ++: intermediate amounts of positive cells; +++: high amounts of cells/ cellular clusters; details: for CD3 range / CD45 (average) / CD45 range / CD68 (average) / CD68 range: spinal cord of EAE mice, semi-quantitative, 3 sections per animal; for relative amount of inflammatory cells (CD45, CD68, CD3) in spinal cord: visual inspection or semi-quantification, versus vehicle
Method: Immunohistochemical staining was performed on cervical, thoracic and lumbar spinal cord sections from EAE mice treated with vehicle, BJJF078 or ERW1041E. The sections were brought back to room temperature and fixed with acetone for 10 min.
For single immunohistochemical stainings (CD3, CD45, CD68), endogenous peroxidase activity was blocked for 15 min with 0.3% hydrogen peroxide and 0.1% sodium azide in TBS. […] The sections were incubated with primary antibodies (Table 1) at 4°C overnight. After subsequent 2 h incubation with appropriate biotinylated IgGs (1/400, Jackson), the procedure was continued with a 1 h incubation with HRP-labelled avidin-biotin complex (ABC complex 1:400, Vector ABC elite kit, Vector laboratories) and the protocol was followed as described for the in situ TG activity staining above. Semi-quantitative analysis of cellular infiltrates per cell type was performed by unbiased manual evaluation of stained lesion areas per spinal cord section.

[2] = target: T1, human Factor XIII (FXIII) (Homo sapiens, UniProt P00488); test: Inhibition of recombinant Transglutaminase activity (fluorescent substrate), human Factor XIII; assay type: biochemical; details: Fig 2C, read-out: IC50 to inhibit FXIII activity
T1 construct: purchased Zedira
T1 sequence (P00488 1-732): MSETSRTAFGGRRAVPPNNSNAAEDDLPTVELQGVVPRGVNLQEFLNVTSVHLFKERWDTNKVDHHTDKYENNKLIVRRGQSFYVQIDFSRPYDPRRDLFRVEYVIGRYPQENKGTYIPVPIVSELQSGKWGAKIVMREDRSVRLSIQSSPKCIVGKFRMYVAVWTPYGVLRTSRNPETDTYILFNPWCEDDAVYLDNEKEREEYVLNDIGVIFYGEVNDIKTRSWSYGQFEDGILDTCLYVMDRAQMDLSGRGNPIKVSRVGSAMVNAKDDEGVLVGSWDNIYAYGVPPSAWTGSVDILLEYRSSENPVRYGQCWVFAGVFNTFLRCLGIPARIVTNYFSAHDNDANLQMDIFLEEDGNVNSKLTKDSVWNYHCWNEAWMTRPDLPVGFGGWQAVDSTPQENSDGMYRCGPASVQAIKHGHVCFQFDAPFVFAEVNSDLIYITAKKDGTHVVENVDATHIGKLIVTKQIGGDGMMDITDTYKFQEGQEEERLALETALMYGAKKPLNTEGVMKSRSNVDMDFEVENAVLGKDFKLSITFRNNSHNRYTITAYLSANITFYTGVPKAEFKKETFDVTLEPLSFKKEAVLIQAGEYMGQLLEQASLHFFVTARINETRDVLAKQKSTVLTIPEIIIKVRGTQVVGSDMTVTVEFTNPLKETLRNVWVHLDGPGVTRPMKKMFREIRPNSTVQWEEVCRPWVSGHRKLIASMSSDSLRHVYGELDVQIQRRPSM
Method: (§1) The potency and specificity of TG2 inhibitors was assessed with various recombinant TGs, as previously described. The reaction buffer (50 mM Tris, 100 mM NaCl, 10 mM CaCl2, 5 mM H-Gly-OMe*HCl (glycinemethylestherhydrochloride, Sigma), 5 mM hexadimethinbromide (Sigma), 9.1 mM DTT, pH 7.5) was heated to 37°C in a 96 well plate. Then 50 μM of the TG substrate Abz-NE(CAD-DNP)EQVSPLTLLK-OH (Zedira) was added. 1 μg/ml recombinant TG (human TG1, human (hTG2) / mouse TG2 (mTG2) or human Factor XIII (FXIII); Zedira) were added. The two lyophilized TG2 inhibitors (see Fig 1 for chemical structure) BJJF078 (3,4-Dimethoxy-N-(5-[4-(acryloylamino)piperidine-1-sulfonyl]-naphthalen-1-yl)-benzamide, kindly provided by Dr S. El Alaoui, Covalab, France) and ERW1041E (2-[(3-Bromo-4,5-dihydro-isoxazol-5-ylmethyl)-carbamoyl]-pyrrolidine-1—carboxylic acid quinolin-3-ylmethyl ester, kindly provided by Prof C. Khosla, Stanford University, USA) were dissolved in DMSO (stock solution: 54 mM) and stored at -80°C. These stocks were further diluted and various concentrations of the TG2 inhibitors (0.3 nM to 100 μM), were added to the wells (final DMSO concentration per well: 0.06%). The relative increase in fluorescence emission, correlating with enzymatic activity, was measured over 4 h with a fluorimeter (Excitation: 320nm, emission: 405 nm; Fluostar, GMB).

[3] = target: T2, recombinant human TG2 (hTG2) (Homo sapiens, UniProt P21980); test: Inhibition of recombinant Transglutaminase activity (fluorescent substrate), human TG2; assay type: biochemical; details: recombinant human TG2, Fig 2A
T2 construct: purchased Zedira
T2 sequence (P21980 1-687): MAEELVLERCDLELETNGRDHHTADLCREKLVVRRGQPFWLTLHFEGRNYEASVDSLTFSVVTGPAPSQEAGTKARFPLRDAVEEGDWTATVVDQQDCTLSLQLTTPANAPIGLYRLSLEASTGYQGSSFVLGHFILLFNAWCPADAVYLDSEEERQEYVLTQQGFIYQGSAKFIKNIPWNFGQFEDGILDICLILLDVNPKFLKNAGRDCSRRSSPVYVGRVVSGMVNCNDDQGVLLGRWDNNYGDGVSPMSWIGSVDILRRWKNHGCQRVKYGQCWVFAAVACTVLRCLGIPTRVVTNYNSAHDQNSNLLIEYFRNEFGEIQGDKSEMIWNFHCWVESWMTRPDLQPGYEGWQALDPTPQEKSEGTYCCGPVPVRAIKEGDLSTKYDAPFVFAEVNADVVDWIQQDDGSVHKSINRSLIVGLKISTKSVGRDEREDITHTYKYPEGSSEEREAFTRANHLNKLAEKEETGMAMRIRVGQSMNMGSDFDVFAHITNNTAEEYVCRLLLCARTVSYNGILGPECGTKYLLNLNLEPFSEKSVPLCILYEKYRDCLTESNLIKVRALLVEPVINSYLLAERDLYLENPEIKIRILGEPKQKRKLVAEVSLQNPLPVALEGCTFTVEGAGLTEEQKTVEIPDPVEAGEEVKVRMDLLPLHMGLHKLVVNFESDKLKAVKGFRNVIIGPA
Method: as §1

Compound	CD3 range [1]	CD45 (average) [1]	CD45 range [1]	CD68 (average) [1]	CD68 range [1]	relative amount of inflammatory cells (CD45, CD68, CD3) in spinal cord [1]	IC50 [2]	IC50 [3]
O=C(NCC1CC(Br)=NO1)C1CCCN1C(=O)OCc1cnc2ccccc2c1 (stereo not shown) [ERW1041E, 2-[(3-Bromo-4,5-dihydro-isoxazol-5-ylmethyl)-carbamoyl]-pyrrolidine-1—carboxylic acid quinolin-3-ylmethyl ester]	- to +	++	+ to +++	++	- to +++	not affected	52 µM	1.6 µM
C=CC(=O)NC1CCN(S(=O)(=O)c2cccc3c(NC(=O)c4ccc(OC)c(OC)c4)cccc23)CC1 [BJJF078, 3,4-Dimethoxy-N-(5-[4-(acryloylamino)piperidine-1-sulfonyl]-naphthalen-1-yl)-benzamide]	- to +	++	+ to +++	++	- to +++	not affected	22 µM	0.041 µM
